This is an account of results in patent US20210069194A1, “COMBINATION THERAPY FOR THE TREATMENT OF CANCER” (MingSight Pharmaceuticals, Inc., priority 2018, published 2021).

One data set has as its target Human PKC delta (Homo sapiens, UniProt Q05655). The data set can be described thus: PKC isoform inhibition in vitro assay, PKC delta. It counts as biochemical.
For data set [1], the system named is IL-6 production in TMD8 cells. As to the kind of experiment: IL-6 assay (ELISA) in TMD8 cells. The following applies: for Inhibition of IL-6 production: TMD8 cells (activating CD79 mutation), 48 hours. It counts as cell-based, Human. The protocol: (§1) TMD8 cells were grown in MEM media supplemented with 10% fetal calf serum (FCS), non-essential vitamin mix, and penicillin-streptomycin antibiotics (pen-strep). HBL1 cells were grown in RPMI-1640 media supplemented with 10% FCS and pen-strep. OCI-Ly3 cells were grown in DMEM media with 15% FCS, non-essential vitamin mix, pen-strep, and 25 mM HEPES buffer. Cells were maintained in suspension culture, fed twice weekly, and split 1:3 approximately every two weeks (TMD8, OCI-Ly3) or weekly (HBL1).
(§2) Cells were harvested via centrifugation and resuspended twice to rinse the media of any IL-6. Cells were then plated in 96 well plates at 5×10^5 cells per well and exposed to increasing concentrations of Compound A, sotrastaurin, or media containing 0.1% DMSO (negative control). For each cell type, experiments were performed in the media used for growth and maintenance. Cells were allowed to grow for 48 hours after plating in the presence of inhibitors. Following compound exposure, cells were pelleted in the 96 well plate, supernatant was removed, and the concentration of IL-6 in the supernatant was determined using R&D Systems Haman IL-6 Quantikine® ELISA Kit (D6050) according to manufacturer's instructions.

In data set [2] the test system is IL-6 production in HBL1 cells. As to the kind of experiment: IL-6 assay (ELISA) in HBL1 cells. It counts as cell-based, Human. The following applies: HBL1 cells (activating CD79 mutation), 48 hours, data not shown.
The subject of data set [3] is IL-6 production in OCI-Ly3 cells. As to the kind of experiment: IL-6 assay (ELISA) in OCI-Ly3 cells. It counts as cell-based, Human. The following applies: OCI-Ly3 cells (no activating CD79 mutation), 48 hours. The protocol: as §1, §2
Data set [4] has as its system TMD8 cells. As to the kind of experiment: Cell proliferation and survival assay (MTT), TMD8. It counts as cell-based, Human. The following applies: for Inhibition of cell proliferation and survival: TMD8 cells, MTT, 96 hours. The protocol:
(§3) TMD8 cells were grown in MEM media supplemented with 10% fetal calf serum (FCS), non-essential vitamin mix, and penicillin-streptomycin antibiotics (pen-strep). HBL1 cells were grown in RPMI-1640 media supplemented with 10% FCS and pen-strep. OCI-Ly3 cells were grown in DMEM media with 15% FCS, non-essential vitamin mix, pen-strep, and 25 mM HEPES buffer. Cells were maintained in suspension culture, fed twice weekly, and split 1:3 approximately every two weeks (TMD8, OCI-Ly3) or weekly (HBL1). Cells were cultured and maintained as described above, with cells always fed on the day prior to assay. Proliferation and survival of cells was quantified using an MTT assay kit according to manufacturer's instructions (Cell Proliferation Kit 1, Roche Diagnostics, Cat. No. 11 465 007 001). Experiments were performed in the same media used by each cell type for growth and maintenance. Cells (5×10^4) were plated in 96 well plates and allowed to grow for 96 hours in the presence of inhibitors. After the exposure period was completed, MTT reagent was added for 3-4 hours. The MTT solubilization reagent was then added to stop the reaction and cells were incubated overnight at 37° C. The plate read the next day according to the kit instructions.

In the next data set the test system is HBL1 cells. The data set can be described thus: Cell proliferation and survival assay (MTT), HBL1. It counts as cell-based, Human. The following applies: 96 hours, data not shown.
The subject of a further data set is OCI-Ly3 cells. As to the kind of experiment: Cell proliferation and survival assay (MTT), OCI-Ly3. The following applies: 96 hours. It counts as cell-based, Human. The protocol:
as §3

The test system of data set [5] is TMD8 cells. As to the kind of experiment: TMD8 mouse xenograph model of DLBCL, tumor volume. It counts as in vivo, SCID mice. The following applies: 120 mg/kg BID. The protocol: (§4) To test the efficacy of Compound A in vivo, TMD8 cells were grown and subcutaneously injected into SCID mice. Large scale suspension culture of TMD8 cells was performed in T250 flasks, where cells were expanded weekly. Animals (n=24) were inoculated with 10×10^6 cells (10×10^6 cells in 100 μL volume of 50% Matrigel®) subcutaneously in the animal's right flank.

Data set [6] in a line: TMD8 mouse xenograph model of DLBCL, body weight. It counts as in vivo, SCID mice. The following applies: 120 mg/kg BID. The protocol: as §4
For another data set, the system named is circulating lymphocytes. As to the kind of experiment: Peripheral lymphocyte levels in healthy humans, multiple ascending dose study. It counts as in vivo, human. The following applies: healthy humans, 50, 100, 150, 200 mg BID, 14 days.

SMILES strings stand for the structures.

Sequence of Human PKC delta (Q05655 whole entry, canonical isoform): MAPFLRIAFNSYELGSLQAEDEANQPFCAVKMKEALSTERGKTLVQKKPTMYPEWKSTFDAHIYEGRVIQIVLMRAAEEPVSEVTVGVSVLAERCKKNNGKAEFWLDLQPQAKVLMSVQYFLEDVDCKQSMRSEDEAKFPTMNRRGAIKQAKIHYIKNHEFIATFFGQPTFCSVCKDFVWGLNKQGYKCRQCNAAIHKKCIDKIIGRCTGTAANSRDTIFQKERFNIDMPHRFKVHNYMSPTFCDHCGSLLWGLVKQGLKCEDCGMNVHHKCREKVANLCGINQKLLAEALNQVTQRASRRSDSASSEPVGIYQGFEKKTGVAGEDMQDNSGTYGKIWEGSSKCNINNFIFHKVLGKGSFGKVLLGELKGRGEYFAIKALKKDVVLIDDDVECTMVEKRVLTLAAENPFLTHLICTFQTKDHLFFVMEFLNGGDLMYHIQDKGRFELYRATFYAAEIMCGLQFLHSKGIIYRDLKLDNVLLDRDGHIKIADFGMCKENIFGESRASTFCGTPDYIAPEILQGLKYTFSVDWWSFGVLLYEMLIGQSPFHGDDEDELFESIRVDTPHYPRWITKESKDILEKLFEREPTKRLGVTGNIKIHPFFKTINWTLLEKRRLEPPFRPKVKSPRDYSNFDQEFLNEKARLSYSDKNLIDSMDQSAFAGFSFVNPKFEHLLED
Method for circulating lymphocytes: Normal, healthy human patients received various doses of Compound A for 14 days of dosing. The dose levels were as follows: cohort 1: 50 mg, BID; cohort 2: 100 mg, BID; cohort 3, 150 mg, BID; and cohort 4,200 mg BID.

Turning to `Cc1ncc(F)c(Nc2n[nH]c3c2CN(C(=O)N2C[C@@H](C)N(CC4CCOCC4)C[C@@H]2C)C3(C)C)n1` [Compound A, 5-{[(2S,5R)-2,5-Dimethyl-4-(tetrahydro-2H-pyran-4-ylmethyl)piperazin-1-yl]carbonyl}-N-(5-fluoro-2-methylpyrimidin-4-yl)-6,6-dimethyl-1,4,5,6-tetrahydropyrrolo[3,4-c]pyrazol-3-amine], the “Inhibition of PKC delta (in words)” value at Human PKC delta is on record as “does not inhibit PKC delta to any appreciable degree”. The “Potency compared to sotrastaurin, IL-6 assay” value in data set [1] is given as “slightly more potent”. In addition, the “Inhibition of IL-6 production” value in data set [1] is “dose-dependent inhibition”; in data set [2], “dose-dependent inhibition”; in data set [3], “not affected”. Moreover, the “Potency compared to sotrastaurin, cell proliferation assay” value in the data set with TMD8 cells [4] was “modestly more potent”. Also, the figures for the “Inhibition of cell proliferation and survival” value with TMD8 cells [4], with HBL1 cells and in the data set on OCI-Ly3 cells were “dose-dependent inhibition”, “dose-dependent inhibition” and “not affected by either compound except at the highest doses tested”, respectively. The Mean tumor volume is 898 mm^3 in the data set with TMD8 cells [5] (study day 20) and 970 mm^3 in the data set with TMD8 cells [5] (study day 28). Besides, in the data set with TMD8 cells [5] (study days 20 to 28), the “Increase of mean tumor volume” value came out at 8%. The “Tumor growth (in words)” value with TMD8 cells [5] (study days 20 to 28) is reported as “no appreciable amounts of tumor growth”. In addition, the “Mean weight of vehicle treated group greater than Compound A treated animals by” value in [6] stood at 1.8 g. Also, in data set [6] (day 24-28), the Body weight change entry was “no increase in body weight”. The “Number of circulating lymphocytes” value in the data set on circulating lymphocytes is given as “dose dependent increase”.

On to `CN1CCN(c2nc(C3=C(c4c[nH]c5ccccc45)C(=O)NC3=O)c3ccccc3n2)CC1` [sotrastaurin, reference compound], for which the figures for the “Inhibition of IL-6 production” value in data set [1] and in [3] were “dose dependent inhibition” and “not affected”, respectively. The “Inhibition of cell proliferation and survival” value in the data set with TMD8 cells [4] is reported as “dose dependent inhibition”; with OCI-Ly3 cells it was “not affected by either compound except at the highest doses tested”.
